Measured values taken from patent US20100298141A1, “SUBSTITUTED PYRIDINE N-OXIDE HERBICIDES” (E. I. DU PONT DE NEMOURS AND COMPANY, priority 2007, published 2010).

Assays:
field sandbur = assay: Test G preemergence test; assay type: in vivo, Cenchrus incertus; conditions: scale 0 to 100
soybean = assay: Test G preemergence test; assay type: in vivo, Glycine max; conditions: scale 0 to 100
spring wheat = assay: Test D preemergence test; assay type: in vivo, Triticum aestivum; conditions: scale 0 to 100
Method in brief: (§1)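 Preemergence application to planted seeds; compounds in non-phytotoxic solvent blend plus surfactant. Dash = not tested.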

winter wheat = assay: Test D preemergence test; assay type: in vivo, Triticum aestivum; conditions: scale 0 to 100
Method in brief: as §1

annual bluegrass = assay: Test D preemergence test; assay type: in vivo, Poa annua; conditions: scale 0 to 100
Method in brief: as §1

corn = assay: Test G preemergence test; assay type: in vivo, Zea mays; conditions: scale 0 to 100
wild oat = assay: Test D preemergence test; assay type: in vivo, Avena fatua; conditions: scale 0 to 100
Method in brief: as §1

goosegrass = assay: Test G preemergence test; assay type: in vivo, Eleusine indica; conditions: scale 0 to 100
cotton = assay: Test G preemergence test; assay type: in vivo, Gossypium hirsutum; conditions: scale 0 to 100
sorghum = assay: Test G preemergence test; assay type: in vivo, Sorghum vulgare; conditions: scale 0 to 100
green foxtail = assay: Test D preemergence test; assay type: in vivo, Setaria viridis; conditions: scale 0 to 100
Method in brief: as §1

yellow nutsedge = assay: Test G preemergence test; assay type: in vivo, Cyperus esculentus; conditions: scale 0 to 100
lambsquarters = assay: Test G preemergence test; assay type: in vivo, Chenopodium album; conditions: scale 0 to 100
winter barley = assay: Test D preemergence test; assay type: in vivo, Hordeum vulgare
Method in brief: as §1

barnyardgrass [1] = assay: Test B flooded paddy test; assay type: in vivo, Echinochloa crus-galli; conditions: Flood, 250 g ai/ha, 13 to 15 days; scale 0 to 100, 0 no effect, 100 complete control
Excerpt: (§2) At time of treatment, test pots were flooded to 3 cm above the soil surface, treated by application of test compounds directly to the paddy water, and then maintained at that water depth for the duration of the test. Treated plants and controls were maintained in a greenhouse for 13 to 15 days, after which time all species were compared to controls and visually evaluated. […] A dash (-) response means no test result.

tall waterhemp = assay: Test G preemergence test; assay type: in vivo, Amaranthus tuberculatos; conditions: scale 0 to 100
millet = assay: Test G preemergence test; assay type: in vivo, Panicum miliaceum; conditions: scale 0 to 100
blackgrass = assay: Test D preemergence test; assay type: in vivo, Alopecurus myosuroides; conditions: scale 0 to 100
Method in brief: as §1

littleseed canarygrass = assay: Test D preemergence test; assay type: in vivo, Phalaris minor; conditions: scale 0 to 100
Method in brief: as §1

barnyardgrass [2] = assay: Test G preemergence test; assay type: in vivo, Echinochloa crus-galli; conditions: scale 0 to 100
duck salad = assay: Test B flooded paddy test; assay type: in vivo, Heteranthera limosa; conditions: Flood, 250 g ai/ha, 13 to 15 days; scale 0 to 100, 0 no effect, 100 complete control
Excerpt: as §2

eastern black nightshade = assay: Test G preemergence test; assay type: in vivo, Solanum ptycanthum; conditions: scale 0 to 100
Italian ryegrass = assay: Test D preemergence test; assay type: in vivo, Lolium multiflorum; conditions: scale 0 to 100
Method in brief: as §1

giant foxtail = assay: Test G preemergence test; assay type: in vivo, Setaria faberii; conditions: scale 0 to 100
itchgrass = assay: Test G preemergence test; assay type: in vivo, Rottboellia cochinchinensis; conditions: scale 0 to 100

In the case of `Cn1nc(C(F)(F)F)c(CS(=O)(=O)c2cccc[n+]2[O-])c1OC(F)F` [Compound 4], the “Plant response rating, Sandbur” value (field sandbur; 31 g ai/ha) is reported as 0, the “Plant response rating, Sandbur” value (field sandbur; 62 g ai/ha) is reported as 30 and the “Plant response rating, Sandbur” value (field sandbur; 125 g ai/ha) is reported as 60. The “Plant response rating, Sandbur” value (field sandbur; 250 g ai/ha) was 100, the “Plant response rating, Soybean” value (soybean; 31 g ai/ha) was 0 and the “Plant response rating, Soybean” value (soybean; 62 g ai/ha) was 10. For the same compound, the “Plant response rating, Soybean” value (soybean; 125 g ai/ha) was 15, the “Plant response rating, Soybean” value (soybean; 250 g ai/ha) was 15 and the “Plant response rating, Wheat, Spring” value (spring wheat; 31 g ai/ha) was 20. For the same compound, the “Plant response rating, Wheat, Spring” value (spring wheat; 62 g ai/ha) was 30, the “Plant response rating, Wheat, Spring” value (spring wheat; 125 g ai/ha) was 30 and the “Plant response rating, Wheat, Spring” value (spring wheat; 250 g ai/ha) was 30. For the same compound, the “Plant response rating, Wheat, Winter” value (winter wheat; 31 g ai/ha) was 30, the “Plant response rating, Wheat, Winter” value (winter wheat; 62 g ai/ha) was 20 and the “Plant response rating, Wheat, Winter” value (winter wheat; 125 g ai/ha) was 25. The “Plant response rating, Wheat, Winter” value (winter wheat; 250 g ai/ha) was 45, the “Plant response rating, Bluegrass” value (annual bluegrass; 31 g ai/ha) was 50 and the “Plant response rating, Bluegrass” value (annual bluegrass; 62 g ai/ha) was 50. For the same compound, the “Plant response rating, Bluegrass” value (annual bluegrass; 125 g ai/ha) was 80, the “Plant response rating, Bluegrass” value (annual bluegrass; 250 g ai/ha) was 100 and the “Plant response rating, Corn” value (corn; 31 g ai/ha) was 0. The “Plant response rating, Corn” value (corn; 62 g ai/ha) was 0, the “Plant response rating, Corn” value (corn; 125 g ai/ha) was 5 and the “Plant response rating, Corn” value (corn; 250 g ai/ha) was 0. The “Plant response rating, Oat, Wild” value (wild oat; 31 g ai/ha) was 25, the “Plant response rating, Oat, Wild” value (wild oat; 62 g ai/ha) was 30 and the “Plant response rating, Oat, Wild” value (wild oat; 125 g ai/ha) was 30. For the same compound, the “Plant response rating, Oat, Wild” value (wild oat; 250 g ai/ha) was 35, the “Plant response rating, Goosegrass” value (goosegrass; 31 g ai/ha) was 80 and the “Plant response rating, Goosegrass” value (goosegrass; 62 g ai/ha) was 95. For the same compound, the “Plant response rating, Goosegrass” value (goosegrass; 125 g ai/ha) was 100, the “Plant response rating, Goosegrass” value (goosegrass; 250 g ai/ha) was 100 and the “Plant response rating, Cotton” value (cotton; 31 g ai/ha) was 5. The “Plant response rating, Cotton” value (cotton; 62 g ai/ha) was 25, the “Plant response rating, Cotton” value (cotton; 125 g ai/ha) was 0 and the “Plant response rating, Cotton” value (cotton; 250 g ai/ha) was 10. For the same compound, the “Plant response rating, Sorghum” value (sorghum; 31 g ai/ha) was 10, the “Plant response rating, Sorghum” value (sorghum; 62 g ai/ha) was 25 and the “Plant response rating, Sorghum” value (sorghum; 125 g ai/ha) was 35. For the same compound, the “Plant response rating, Sorghum” value (sorghum; 250 g ai/ha) was 40, the “Plant response rating, Foxtail, Green” value (green foxtail; 31 g ai/ha) was 40 and the “Plant response rating, Foxtail, Green” value (green foxtail; 62 g ai/ha) was 50. The “Plant response rating, Foxtail, Green” value (green foxtail; 125 g ai/ha) was 50, the “Plant response rating, Foxtail, Green” value (green foxtail; 250 g ai/ha) was 100 and the “Plant response rating, Nutsedge, Yellow” value (yellow nutsedge; 31 g ai/ha) was 0. For the same compound, the “Plant response rating, Nutsedge, Yellow” value (yellow nutsedge; 62 g ai/ha) was 0, the “Plant response rating, Nutsedge, Yellow” value (yellow nutsedge; 125 g ai/ha) was 15 and the “Plant response rating, Nutsedge, Yellow” value (yellow nutsedge; 250 g ai/ha) was 40. The “Plant response rating, Lambsquarters” value (lambsquarters; 31 g ai/ha) was 0, the “Plant response rating, Lambsquarters” value (lambsquarters; 62 g ai/ha) was 10 and the “Plant response rating, Lambsquarters” value (lambsquarters; 125 g ai/ha) was 10. For the same compound, the “Plant response rating, Lambsquarters” value (lambsquarters; 250 g ai/ha) was 10, the “Plant response rating, Barley” value (winter barley; Preemergence, 62 g ai/ha, scale 0 to 100) was 30 and the “Plant response rating, Barley” value (winter barley; Preemergence, 125 g ai/ha, scale 0 to 100) was 30. For the same compound, the “Plant response rating, Barley” value (winter barley; Preemergence, 31 g ai/ha, scale 0 to 100) was 30, the “Plant response rating, Barley” value (winter barley; preemergence, 250 g ai/ha, scale 0 (no effect) to 100 (complete control)) was 35 and the “Plant response rating, Barnyardgrass” value (barnyardgrass [1]) was 80. The “Plant response rating, Waterhemp” value (tall waterhemp; 31 g ai/ha) was 80, the “Plant response rating, Waterhemp” value (tall waterhemp; 62 g ai/ha) was 100 and the “Plant response rating, Waterhemp” value (tall waterhemp; 125 g ai/ha) was 100. The “Plant response rating, Waterhemp” value (tall waterhemp; 250 g ai/ha) was 100, the “Plant response rating, Millet” value (millet; 31 g ai/ha) was 20 and the “Plant response rating, Millet” value (millet; 62 g ai/ha) was 40. The “Plant response rating, Millet” value (millet; 125 g ai/ha) was 40, the “Plant response rating, Millet” value (millet; 250 g ai/ha) was 100 and the “Plant response rating, Blackgrass” value (blackgrass; 31 g ai/ha) was 0. For the same compound, the “Plant response rating, Blackgrass” value (blackgrass; 62 g ai/ha) was 30, the “Plant response rating, Blackgrass” value (blackgrass; 125 g ai/ha) was 50 and the “Plant response rating, Blackgrass” value (blackgrass; 250 g ai/ha) was 100. For the same compound, the “Plant response rating, Canarygrass” value (littleseed canarygrass; 31 g ai/ha) was 30, the “Plant response rating, Canarygrass” value (littleseed canarygrass; 62 g ai/ha) was 100 and the “Plant response rating, Canarygrass” value (littleseed canarygrass; 125 g ai/ha) was 100. For the same compound, the “Plant response rating, Canarygrass” value (littleseed canarygrass; 250 g ai/ha) was 100, the “Plant response rating, Barnyardgrass” value (barnyardgrass [2]; 31 g ai/ha) was 70 and the “Plant response rating, Barnyardgrass” value (barnyardgrass [2]; 62 g ai/ha) was 100. The “Plant response rating, Barnyardgrass” value (barnyardgrass [2]; 125 g ai/ha) was 100, the “Plant response rating, Barnyardgrass” value (barnyardgrass [2]; 250 g ai/ha) was 100 and the “Plant response rating, Ducksalad” value (duck salad) was 90. The “Plant response rating, Nightshade” value (eastern black nightshade; 31 g ai/ha) was 20, the “Plant response rating, Nightshade” value (eastern black nightshade; 62 g ai/ha) was 30 and the “Plant response rating, Nightshade” value (eastern black nightshade; 125 g ai/ha) was 90. The “Plant response rating, Nightshade” value (eastern black nightshade; 250 g ai/ha) was 100, the “Plant response rating, Ryegrass, Italian” value (Italian ryegrass; 31 g ai/ha) was 20 and the “Plant response rating, Ryegrass, Italian” value (Italian ryegrass; 62 g ai/ha) was 20. For the same compound, the “Plant response rating, Ryegrass, Italian” value (Italian ryegrass; 125 g ai/ha) was 20, the “Plant response rating, Ryegrass, Italian” value (Italian ryegrass; 250 g ai/ha) was 50 and the “Plant response rating, Foxtail, Giant” value (giant foxtail; 31 g ai/ha) was 40. The “Plant response rating, Foxtail, Giant” value (giant foxtail; 62 g ai/ha) was 50, the “Plant response rating, Foxtail, Giant” value (giant foxtail; 125 g ai/ha) was 90 and the “Plant response rating, Foxtail, Giant” value (giant foxtail; 250 g ai/ha) was 100. For the same compound, the “Plant response rating, Itchgrass” value (itchgrass; 31 g ai/ha) was 0, the “Plant response rating, Itchgrass” value (itchgrass; 62 g ai/ha) was 20 and the “Plant response rating, Itchgrass” value (itchgrass; 125 g ai/ha) was 30. The “Plant response rating, Itchgrass” value (itchgrass; 250 g ai/ha) was 60.
